# Test results as given in patent EP4800012A1, “COMPOUND ACTING AS PARP7 INHIBITOR” (Dovetree Medicines Unus, Inc., priority 2023, dated 2025).
# pIC50: −log10 of the molar value.
# Legend:
# NCI-H1373 cells = assay: Inhibition on NCI-H1373 cell proliferation (Cell-Titer-Glo); assay type: cell-based; details: Homo sapiens, 144 h; NCI-H1373 cells, incubation for 6 days, Cell-Titer-Glo; read-out: NCI-H1373 cell proliferation inhibition IC50
# Procedure: The inhibitory effect of the compound on PARP7 was evaluated by testing the inhibitory effect of the compound on NCI-H1373 cell proliferation.
# NCI-H1373 cells (ATCC, CRL-5866) were cultured in a complete medium, namely, a RPMI-1640 medium (Gibco, 22400089) containing 10% fetal bovine serum (Corning, 35-081-CV).
# Negative control wells and positive control wells were added with 50 nL DMSO (Sigma, D2650), respectively.
# In "Day 0" detection plate, NCI-H1373 cells were seeded at a density of 600 cells/well (50 µL) in a complete medium into the Day 0 test wells of a 384-well detection plate (Grenier, 781091). Then, 25 µL of Cell-Titer-Glo reagent (Promega, G7573) was added to each well, followed by centrifugation at 1000 rpm at room temperature for 1 minute and incubation at room temperature under shaded conditions for 10 min. Chemiluminescence signals were collected using an Envision (Perkin Elmer, EnVision 2105) to obtain the average value of the Day 0 test values.
# In "compound detection plate", NCI-H1373 cells were seeded at a density of 600 cells/well (50 µL) in a complete medium into the negative control wells and the compound detection wells of a 384-well detection plate (Grenier, 781091), and 50 µL of cell culture medium was added to the positive control wells, followed by centrifugation at 1000 rpm at room temperature for 1 minute and placing in a cell incubator at 37°C, 5% CO2 for incubation for 6 days. […] Chemiluminescence signals were collected using an Envision (Perkin Elmer, EnVision 2105). The test values for each compound well, negative control well, and positive control well were obtained.
# The proliferation inhibition ratio formula is as follows: [formula]
# The average value of the negative control = the average value of the Day 6 test values of each negative control well minus the average value of the Day 0 test values
# The average value of the positive control = the average value of the Day 6 test values of each positive control well
# The average value of the compound test = (the Day 6 test value of compound test well 1 + the Day 6 test value of compound test well 2)/2 - the average value of the Day 0 test values
# PARP7 [1] = molecular target: T1, PARP7 (Homo sapiens, UniProt Q7Z3E1); assay: PARP7 TR-FRET binding inhibition (displacement of probe RBN011147); details: TR-FRET, Biotin-labeled probe RBN011147; read-out: PARP7 binding inhibition IC50
# T1 construct: purchased BPS 80527
# T1 sequence (Q7Z3E1 1-657): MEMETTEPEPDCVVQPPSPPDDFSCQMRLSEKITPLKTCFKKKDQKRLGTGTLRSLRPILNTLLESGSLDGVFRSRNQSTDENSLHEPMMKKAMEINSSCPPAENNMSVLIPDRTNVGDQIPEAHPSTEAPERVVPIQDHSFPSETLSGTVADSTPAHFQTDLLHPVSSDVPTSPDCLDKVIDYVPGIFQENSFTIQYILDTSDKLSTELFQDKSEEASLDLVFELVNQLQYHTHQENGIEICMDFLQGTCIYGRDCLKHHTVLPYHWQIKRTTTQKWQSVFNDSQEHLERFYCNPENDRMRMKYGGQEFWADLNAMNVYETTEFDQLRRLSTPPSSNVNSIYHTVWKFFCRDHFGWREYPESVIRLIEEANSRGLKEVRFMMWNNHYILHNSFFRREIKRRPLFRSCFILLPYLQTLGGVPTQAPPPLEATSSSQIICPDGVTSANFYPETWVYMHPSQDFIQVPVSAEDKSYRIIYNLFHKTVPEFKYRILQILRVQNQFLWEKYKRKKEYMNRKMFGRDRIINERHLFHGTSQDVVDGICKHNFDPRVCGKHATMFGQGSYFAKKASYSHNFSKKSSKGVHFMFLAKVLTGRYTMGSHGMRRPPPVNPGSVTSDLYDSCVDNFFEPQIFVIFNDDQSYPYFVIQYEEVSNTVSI
# Procedure: The ability of the compound to substitute the probe RBN011147 (Wigle et al., 2020, Cell Chemical Biology 27, 877-887) was tested by a TR-FRET method, and IC50 was calculated to evaluate the binding ability of the compound to PARP7. […]
# PARP7 [2] = molecular target: T1, PARP7; assay: Inhibition of the compound on PARP7 protein activity (ADP-ribosylation, chemiluminescence); assay type: biochemical; details: Histone H1 coated plate, Biotin-Labeled NAD+, 2 h at room temperature, chemiluminescence; read-out: PARP7 activity inhibition IC50
Structure (SMILES),pIC50 (NCI-H1373 cells),pIC50 (PARP7 [1]),pIC50 (PARP7 [2])
CC(CCCNC(=O)c1ccc(-c2cc(C(F)(F)F)sn2)cc1)Nc1cn[nH]c(=O)c1C(F)(F)F (stereo not drawn) [Example 83],> 6.52,> 8.00,
CCN(C)C(=O)[C@@H](CCCNC(=O)c1ccc(-c2ncc(C(F)(F)F)s2)cc1)Nc1cn[nH]c(=O)c1C(F)(F)F [Example 259],> 6.52,> 8.00,
Cc1c(CCC(=O)Nc2ccc(-c3ncc(C(F)(F)F)cn3)cn2)c[nH]c(=O)c1C(F)(F)F [Example 13],< 5.52,7.00 to 7.52,> 8.52
CC(CCCNC(=O)c1cc(-c2ncc(C(F)(F)F)cn2)on1)Nc1cn[nH]c(=O)c1C(F)(F)F (stereo not drawn) [Example 39],6.00 to 6.52,> 8.00,> 8.52
COc1cnc(-c2ccc(C(=O)NCCCC(C)Nc3cn[nH]c(=O)c3C(F)(F)F)cc2)s1 (stereo not drawn) [Example 22],5.52 to 6.00,7.52 to 8.00,> 8.52
COC1CCN(C(=O)[C@@H](CCCNC(=O)c2ccc(-c3ncc(C(F)(F)F)s3)cc2)Nc2cn[nH]c(=O)c2C(F)(F)F)CC1 [Example 255],6.00 to 6.52,> 8.00,
CC(CCCN1C(=O)c2ccc(-c3ncc(C(F)(F)F)cn3)cc2C1=O)Nc1cn[nH]c(=O)c1C(F)(F)F (stereo not drawn) [Example 9],< 5.52,> 8.00,> 8.52
CC[C@@H]1CN(C(=O)[C@@H](CCCNC(=O)c2ccc(-c3ncc(C(F)(F)F)s3)cc2)Nc2cn[nH]c(=O)c2C(F)(F)F)CCO1 [Example 262],> 6.52,7.52 to 8.00,
CC(COCc1cc(-c2cnc(C(F)(F)F)nc2)sn1)Nc1cn[nH]c(=O)c1C(F)(F)F (stereo not drawn) [Example 251],< 5.52,< 7.00,
CC(CCCn1ccc2cc(-c3ncc(C(F)(F)F)s3)cnc2c1=O)Nc1cn[nH]c(=O)c1C(F)(F)F (stereo not drawn) [Example 253],5.52 to 6.00,> 8.00,
Cc1c(-c2cnc(C(F)(F)F)s2)ncn(CCCC(C)Nc2cn[nH]c(=O)c2C(F)(F)F)c1=O (stereo not drawn) [Example 248],< 5.52,7.00 to 7.52,
CC(CC1CN(C(=O)c2ccc(-n3cc(C(F)(F)F)cn3)cc2)C1)Nc1cn[nH]c(=O)c1C(F)(F)F (stereo not drawn) [Example 218],,< 7.00,
Cc1cccc(NC(=O)[C@@H](CCCNC(=O)c2ccc(-c3ncc(C(F)(F)F)s3)cc2)Nc2cn[nH]c(=O)c2C(F)(F)F)n1 [Example 257],> 6.52,> 8.00,
Cc1cc(NC(C)CCCN(C)C(=O)c2ccc(-c3ncc(C(F)(F)F)cn3)cc2O)c(C#N)c(=O)[nH]1 (stereo not drawn) [Example 33],,< 7.00,7.00 to 7.52
N#C[C@@H]1CCCN(C(=O)[C@@H](CCCNC(=O)c2ccc(-c3ncc(C(F)(F)F)s3)cc2)Nc2cn[nH]c(=O)c2C(F)(F)F)C1 [Example 260],5.52 to 6.00,7.52 to 8.00,
Cc1cnc(-c2cnc(C(=O)NCCCC(C)Nc3cn[nH]c(=O)c3C(F)(F)F)cn2)s1 (stereo not drawn) [Example 24],< 5.52,7.52 to 8.00,
COC1CN(C(=O)[C@@H](CCCNC(=O)c2ccc(-c3ncc(C(F)(F)F)s3)cc2)Nc2cn[nH]c(=O)c2C(F)(F)F)C1 [Example 256],6.00 to 6.52,> 8.00,
NC(=O)c1cccc2cn(CCCn3cnc4cc(-c5ncc(C(F)(F)F)cn5)c(F)cc4c3=O)nc12 [Example 252],< 5.52,< 7.00,
O=C(NCCC[C@@H](Nc1cn[nH]c(=O)c1C(F)(F)F)C(=O)N1CCC2(CC2)C1)c1ccc(-c2ncc(C(F)(F)F)s2)cc1 [Example 220],> 6.52,> 8.00,
O=C(NCCC[C@@H](Nc1cn[nH]c(=O)c1C(F)(F)F)C(=O)N1CCSCC1)c1ccc(-c2ncc(C(F)(F)F)s2)cc1 [Example 236],6.00 to 6.52,7.52 to 8.00,

Structure (SMILES),pIC50 (NCI-H1373 cells),pIC50 (PARP7 [1]),pIC50 (PARP7 [2])
NC(=O)c1cccc2cn(CCCNC(=O)c3ncc(-c4ncc(C(F)(F)F)s4)cc3F)nc12 [Example 249],< 5.52,7.00 to 7.52,
N#CC1CCN(C(=O)C(CCCNC(=O)c2ccc(-c3ncc(C(F)(F)F)s3)cc2)Nc2cn[nH]c(=O)c2C(F)(F)F)C1 (stereo not drawn) [Example 261],6.00 to 6.52,7.00 to 7.52,
CC(CCCNC(=O)c1ccc(-c2ncc(C(F)(F)F)s2)cc1F)Nc1cc[nH]c(=O)c1C#N (stereo not drawn) [Example 71],,< 7.00,< 7.00
CC1(NC(=O)[C@@H](CCCNC(=O)c2ccc(-c3ncc(C(F)(F)F)s3)cc2)Nc2cn[nH]c(=O)c2C(F)(F)F)CCOCC1 [Example 227],> 6.52,> 8.00,
CC(CCCN(C)C(=O)c1cnc(N2CCOCC2)cn1)Nc1cn[nH]c(=O)c1C(F)(F)F (stereo not drawn) [Example 36],,< 7.00,7.00 to 7.52
O=C(NCCC[C@@H](Nc1cn[nH]c(=O)c1C(F)(F)F)C(=O)Nc1cccnc1)c1ccc(-c2ncc(C(F)(F)F)s2)cc1 [Example 234],6.00 to 6.52,> 8.00,
CC(CCCN(C)C(=O)c1cnc(N2CCN(C3CC3)CC2)cn1)Nc1cn[nH]c(=O)c1C(F)(F)F (stereo not drawn) [Example 37],,< 7.00,< 7.00
O=C(NCC1CC(Nc2cn[nH]c(=O)c2C(F)(F)F)C1)c1ccc(-c2ncc(C(F)(F)F)s2)cc1 (stereo not drawn) [Example 129],,< 7.00,
C[C@@H]1CCN(C(=O)[C@@H](CCCNC(=O)c2ccc(-c3ncc(C(F)(F)F)s3)cc2)Nc2cn[nH]c(=O)c2C(F)(F)F)C1 [Example 225],> 6.52,> 8.00,
CC(C)NC(=O)[C@@H](CCCNC(=O)c1ccc(-c2ncc(C(F)(F)F)s2)cc1)Nc1cn[nH]c(=O)c1C(F)(F)F [Example 258],> 6.52,> 8.00,
CC(CCCn1ccc2cc(-c3ncc(C(F)(F)F)cn3)cnc2c1=O)Nc1cn[nH]c(=O)c1C(F)(F)F (stereo not drawn) [Example 250],< 5.52,7.52 to 8.00,
O=C(c1ccc(-c2ncc(C(F)(F)F)s2)cc1)N1CC2(CC(Nc3cn[nH]c(=O)c3C(F)(F)F)C2)C1 [Example 219],,< 7.00,
CC(CCNC(=O)c1n[nH]c2c1CCN(c1ncc(C(F)(F)F)cn1)C2)Nc1cn[nH]c(=O)c1C(F)(F)F (stereo not drawn) [Example 8],< 5.52,7.52 to 8.00,
O=C(NCCC1CC(OC2CC2)CN1c1cn[nH]c(=O)c1C(F)(F)F)c1ccc(-c2ncc(C(F)(F)F)s2)cn1 (stereo not drawn) [Example 138],,< 7.00,
O=C(CCc1c[nH]c(=O)c2ccccc12)Nc1ccc(-c2ncc(C(F)(F)F)cn2)cc1 [Example 12],,7.52 to 8.00,8.00 to 8.52
O=C(NCC1CC(Nc2cn[nH]c(=O)c2C(F)(F)F)C1)c1ccc(-c2ncc(C(F)(F)F)cn2)cc1 (stereo not drawn) [Example 226],,< 7.00,
Cc1cc(NCCCC(C)NC(=O)c2cnc(-c3ncc(C(F)(F)F)cn3)cn2)c(C#N)c(=O)[nH]1 (stereo not drawn) [Example 49],,< 7.00,7.00 to 7.52
C[C@H]1CCN1C(=O)[C@@H](CCCNC(=O)c1ccc(-c2ncc(C(F)(F)F)s2)cc1)Nc1cn[nH]c(=O)c1C(F)(F)F [Example 240],< 5.52,7.52 to 8.00,
CC(CCNC(=O)c1n[nH]c2cc(-c3ncc(C(F)(F)F)cn3)ccc12)Nc1cn[nH]c(=O)c1C(F)(F)F (stereo not drawn) [Example 7],< 5.52,7.00 to 7.52,
NC(=O)c1cccc2cn(CCCn3ccc4cc(-c5ncc(C(F)(F)F)cn5)c(F)cc4c3=O)nc12 [Example 254],,< 7.00,
